Assay [1] addresses Glutamate carboxypeptidase 2 (Homo sapiens, UniProt Q04609). In words: Inhibition of glutamate carboxypeptidase 2 in human LNCAP cells assessed as glutamate formation using NAAG as substrate after 60 mins by fluorometric analysis. Type of assay: cell-based.
For a further assay, the species on record is Homo sapiens. The assay is described as follows: Ratio of Km for wild type recombinant human glutamate carboxypeptidase 2 to Km for recombinant human glutamate carboxypeptidase 2 K699S mutant.

Sequence of Glutamate carboxypeptidase 2 (Q04609 whole entry): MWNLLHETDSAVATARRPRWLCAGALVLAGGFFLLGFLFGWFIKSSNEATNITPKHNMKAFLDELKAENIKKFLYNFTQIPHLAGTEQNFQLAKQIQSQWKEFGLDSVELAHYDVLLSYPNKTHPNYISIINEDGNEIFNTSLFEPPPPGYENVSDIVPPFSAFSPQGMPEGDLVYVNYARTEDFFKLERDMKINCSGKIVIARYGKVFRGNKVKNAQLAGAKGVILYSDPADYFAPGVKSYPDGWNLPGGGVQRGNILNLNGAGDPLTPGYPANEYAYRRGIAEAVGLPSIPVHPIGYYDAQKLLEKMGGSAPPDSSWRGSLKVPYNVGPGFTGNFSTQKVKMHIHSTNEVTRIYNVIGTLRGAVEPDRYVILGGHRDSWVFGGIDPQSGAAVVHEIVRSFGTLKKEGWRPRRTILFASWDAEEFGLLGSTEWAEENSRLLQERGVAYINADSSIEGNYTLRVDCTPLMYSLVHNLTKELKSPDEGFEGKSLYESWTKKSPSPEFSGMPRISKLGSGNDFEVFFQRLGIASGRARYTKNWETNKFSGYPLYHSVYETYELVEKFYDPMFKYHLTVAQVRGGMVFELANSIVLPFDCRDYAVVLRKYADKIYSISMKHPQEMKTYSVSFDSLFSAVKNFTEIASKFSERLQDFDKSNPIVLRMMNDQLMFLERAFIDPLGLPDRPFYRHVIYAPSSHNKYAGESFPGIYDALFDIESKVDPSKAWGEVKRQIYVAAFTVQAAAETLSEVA

`CCCCCCC[C@H](NC(=O)N[C@@H](CCCCNC(=O)c1ccc(I)cc1)C(=O)O)C(=O)O`: the Ki in assay [1] is 29 nM. Turning to `CCCCCC[C@H](NC(=O)N[C@@H](CCCCNC(=O)c1ccc(I)cc1)C(=O)O)C(=O)O`, the Ki in assay [1] came to 72 nM.

Take `O=C(O)CNC(=O)N[C@@H](CCCCNC(=O)c1ccc(I)cc1)C(=O)O`: the Ki in assay [1] was 4390 nM. The same measure, in the same setting: the same measure for `CCCC[C@H](NC(=O)N[C@@H](CCCCNC(=O)c1ccc(I)cc1)C(=O)O)C(=O)O`: 56 nM; for `C[C@H](NC(=O)N[C@@H](CCCCNC(=O)c1ccc(I)cc1)C(=O)O)C(=O)O`: 325 nM. As for `CC[C@H](NC(=O)N[C@@H](CCCCNC(=O)c1ccc(I)cc1)C(=O)O)C(=O)O`, in assay [1], the inhibition constant (Ki) stood at 121 nM. As to `CCCCCCCC(NC(=O)[C@H](CC(=O)O)NC(C)=O)C(=O)O` (mixture of isomers), the Ratio in the assay listed under Homo sapiens worked out at 3. Regarding `CCCCC[C@H](NC(=O)N[C@@H](CCCCNC(=O)c1ccc(I)cc1)C(=O)O)C(=O)O`, the Ki in assay [1] was 20 nM.

Take `CCC[C@H](NC(=O)N[C@@H](CCCCNC(=O)c1ccc(I)cc1)C(=O)O)C(=O)O`: the Ki in assay [1] was 145 nM.

The Ki is the equilibrium dissociation constant of an inhibitor or competing ligand from its target.

The record behind these values is ChEMBL document CHEMBL1926644, “Novel substrate-based inhibitors of human glutamate carboxypeptidase II with enhanced lipophilicity” (J Med Chem, 2011).
